Laboratory results reported in patent publication US20110269790A1, “NOVEL THIENOPYRIDINES AS PHARMACOLOGICALLY ACTIVE AGENTS” (priority 2009, published 2011).
“Also recorded” adds a separate entry of the source.

Experiments:
[1] = biological target: T1, yeast α-glucosidase (Saccharomyces cerevisiae, UniProt P53341); experiment: In-vitro yeast α-glucosidase inhibition assay; format: biochemical, bakers yeast
T1 construct: α-Glucosidase [(EC 3.2.1.20) Type I: from bakers yeast]
Excerpt: (§1) Chemicals: α-Glucosidase [(EC 3.2.1.20) Type I: from bakers yeast], rat intestinal acetone powder (as a source of crude intestinal α-glucosidase), α-amylase [EC 3.2.1.1) Type VI B: from porcine pancreas], p-nitrophenyl α-D-glucopyranoside, 3,5-dinitro salicylic acid, soluble potato starch and 1-deoxyrojirimycine, were purchased from Sigma Chemical Co., St Louis, Mo., USA. Other chemicals of analytical grade were procured from indigenous manufacturers.
In-vitro a-Glucosidase Inhibition Assay: Yeast and intestinal a-glucosidase inhibitory activities were determined as per reported methods (Babu et al., 2004; Mc Dougall et al., 2005). Rat intestinal acetone powder in normal saline (100% w/v) was sonicated properly and the supernatant was used as a source of crude intestinal a-glucosidase after centrifugation. In brief, 20 μl, of test samples (100 mg/ml DMSO solution) were reconstituted in 100 μl of 100 mM-Phosphate buffer (pH 6.8) in a 96-well microplate and incubated with 50 μl yeast a-glucosidase (0.76 μ/ml in same buffer) or crude intestinal a-glucosidase for 5 min before 50-μl substrate (5 mM, […] prepared in same buffer) was added. Release of p-nitrophenyol was measured at 405 nm spectrophotometrically (Spectra Mas Plus 384, Molecular Device corporation, Sunnyvale, Calif., USA) 5 min after incubation with substrate, individual blank for test samples were prepared to correct background absorbance where the substrate was replaced with 50 μl of buffer. The control sample contained 20 μl DMSO in place of test samples. The percentage of enzyme inhibition was calculated as (A−B/A)×100 where A is represents the absorbance of the control without test samples, and B represents the absorbance in the presence of test samples. […] The IC50 values were calculated by applying logarithmic regression analysis from the mean inhibitory values.

[2] = biological target: T2, porcine pancreatic α-amylase (Sus scrofa, UniProt P00690); experiment: α-Amylase inhibition assay; format: biochemical; conditions: for Maltose released: a/b marks the respective control (Control-1 2.147, Control-2 3.429); for inhibition at 10000 µg/mL (stock): 0.05 h
T2 construct: α-amylase [EC 3.2.1.1) Type VI B: from porcine pancreas]; purchased Sigma Chemical Co., St Louis, Mo., USA; host or cells: porcine pancreas (natural source)
T2 sequence (P00690 16-511): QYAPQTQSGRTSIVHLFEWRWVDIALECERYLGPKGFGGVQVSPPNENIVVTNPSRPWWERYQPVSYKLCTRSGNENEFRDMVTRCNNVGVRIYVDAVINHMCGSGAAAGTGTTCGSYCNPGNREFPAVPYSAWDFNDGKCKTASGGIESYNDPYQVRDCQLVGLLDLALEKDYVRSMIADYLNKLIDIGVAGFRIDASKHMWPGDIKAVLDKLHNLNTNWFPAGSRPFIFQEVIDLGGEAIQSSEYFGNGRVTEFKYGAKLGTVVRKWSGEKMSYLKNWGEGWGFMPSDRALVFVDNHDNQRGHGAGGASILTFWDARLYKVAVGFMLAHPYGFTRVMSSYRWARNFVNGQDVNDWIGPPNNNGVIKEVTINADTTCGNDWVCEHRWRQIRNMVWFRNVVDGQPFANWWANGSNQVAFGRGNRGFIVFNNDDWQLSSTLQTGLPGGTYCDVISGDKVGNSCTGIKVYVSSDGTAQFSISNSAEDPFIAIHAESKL
Excerpt: as §1
a-Amylase Inhibition Assay: The assay method was adopted from Ali et al. (2006) and modified accordingly to suite microplate reading. In brief, 40 μL of test samples (10 mg/mL DMSO) were reconstituted in 160 μL of 20 mM phosphate buffer (pH 6.9) containing 6.7 mM sodium chloride in 2 mL Eppendorf tubes and incubated with 200 μL of porcine pancreatic α-amylase) (4 U/mL prepared in ice cold distilled water) for 5 min. The reaction was started by the addition of 400-μL soluble potato starch solution (0.5% w/v in 20 mM phosphate buffer, pH 6.9). Exactly 3 min after incubation, 400 μL DNS color reagent (1.0 g of 3,5-dinitrosalicylic acid, 30 g of sodium potassium tartrate and 20 mL of 2 N NaOH to a final volume of 100 mL in distilled water) was added. Closed tubes were placed in a water bath (85-90° C.) for 10 min to develop color and cooled thereafter. 50 μL of reaction mixtures was diluted with 175 μL of distilled water in a 96-well microplate. α-Amylase activity was determined by measuring the absorbance of the mixture at 540 nm spectrophotometrically as above. Individual blanks were prepared to correct for the background absorbance due to test samples. In this case DNS solution was added in tubes before addition of substrate. The percentage inhibition of enzyme activity was calculated as above. All the tests were run in duplicate in this assay.

[3] = tested on: mice; experiment: Adenosine mediated bronchoconstriction and lung inflammation in an allergic mouse model; format: in vivo; design: Total count: unit not given here; conditions: BAL fluid cells; 100 mg/kg oral
Description: Thienopyridines were proven as potent cytotoxic and anti-inflammatory agents in the previous experimental results. In cytotoxic MTT assay, activity of these molecules may be due to the involvement of adenosine receptors. Further, to find the bronchodilatory activity of these moieties and to find the involvement of adenosine receptors in their action, non-invasive and invasive adenosine mediated bronchoconstriction and lung inflammation in an allergic mouse model was performed.
Male mice, 6-8 weeks of age, free of specific pathogens were obtained from National Institute of Nutrition. The animals were maintained on a ragweed-free diet. All experimental protocols used in this study were under a protocol approved by animal ethical committee. Sensitization was performed according to the modified procedure described by Fan et al, 2002. Mice were sensitized on days 1 and 6 with i.p. injections of ragweed allergen (200 μg/200 μl of water for injection). Non-sensitized control animals received only water for injection with the same volumes. Ten days after sensitization, the mice were placed in plexiglas chamber and challenged with 0.5% ragweed or with 0.9% saline as a control for twenty minutes both in the morning and evening for three days. Then mice were divided into different groups consisting of six animals each. The groups including a control without sensitization; a sensitized group and a standard group along with groups of the test molecules were separated. Twenty-four hours after last challenge with ragweed, the mice were given an oral dose of test molecules and theophylline (100 mg/kg body weight) as acacia suspension. Two hours after administration of the oral dose, the mice were challenged with adenosine solution (24 mg/ml). The variation in respiration was recorded after anaesthetizing them with pentobarbitone sodium (0.1 ml 200 mg/ml ip) using kymograph. Then, mice were sacrificed and trachea was cannulated to collect the bronchoalveolar lavage fluid. This was performed by pumping 1 ml phosphate buffered saline into lungs through tracheal cannula and collecting the sample. Analysis of BAL fluid was performed to get the cellular differentials. The BAL fluid was centrifugated at 1500 rpm for six minutes at room temparature. After removing the supernatant, BAL cells were resuspended in 1 ml of phosphate buffered saline. Total cells were then counted manually in a hemocytometer chamber. A differential count of at least 300 cells was made according to the standard morphologic criteria and results were mentioned in table.

[4] = 10 mg per ml, calculated from maltose released vs respective control

T1 sequence (P53341 whole entry): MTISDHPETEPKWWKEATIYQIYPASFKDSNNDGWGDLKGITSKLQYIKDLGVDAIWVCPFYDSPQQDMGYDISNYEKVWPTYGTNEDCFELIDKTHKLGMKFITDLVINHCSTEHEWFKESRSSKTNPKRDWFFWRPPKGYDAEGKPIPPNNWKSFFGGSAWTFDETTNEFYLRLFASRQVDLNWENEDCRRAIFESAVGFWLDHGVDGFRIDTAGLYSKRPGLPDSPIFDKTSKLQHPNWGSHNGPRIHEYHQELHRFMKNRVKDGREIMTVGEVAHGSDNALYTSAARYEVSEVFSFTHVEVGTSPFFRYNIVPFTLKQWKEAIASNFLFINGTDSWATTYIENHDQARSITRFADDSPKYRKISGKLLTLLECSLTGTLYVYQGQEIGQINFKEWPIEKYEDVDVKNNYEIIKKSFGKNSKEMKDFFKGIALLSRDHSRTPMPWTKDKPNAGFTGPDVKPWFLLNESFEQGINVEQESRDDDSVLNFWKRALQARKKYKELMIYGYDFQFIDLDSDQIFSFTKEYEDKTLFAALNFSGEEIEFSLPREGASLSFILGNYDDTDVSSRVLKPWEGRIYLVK

SMILES	Yeast α-glucosidase enzyme inhibitory activity (in words) [1]	inhibition at 10000 µg/mL (stock) [2, 4] [%]	Maltose release ([2]; end of the reaction, vs control maltose release)	inhibition at 39.063 µg/mL ([1]; yeast α-glucosidase, 0.039063 mg/ml, read-out: % Inhibition (Mean ± S.E)) [%]	inhibition at 78.125 µg/mL ([1]; yeast α-glucosidase, 0.078125 mg/ml, read-out: % Inhibition (Mean ± S.E)) [%]	inhibition at 156.25 µg/mL ([1]; yeast α-glucosidase, 0.15625 mg/ml, read-out: % Inhibition (Mean ± S.E)) [%]	inhibition at 312.5 µg/mL ([1]; yeast α-glucosidase, 0.3125 mg/ml, read-out: % Inhibition (Mean ± S.E)) [%]	inhibition at 625 µg/mL ([1]; yeast α-glucosidase, 0.625 mg/ml, read-out: % Inhibition (Mean ± S.E)) [%]	inhibition at 1250 µg/mL ([1]; yeast α-glucosidase, 1.25 mg/ml, read-out: % Inhibition (Mean ± S.E)) [%]	inhibition at 2500 µg/mL ([1]; yeast α-glucosidase, 2.5 mg/ml, read-out: % Inhibition (Mean ± S.E)) [%]	inhibition at 5000 µg/mL ([1]; yeast α-glucosidase, 5 mg/ml, read-out: % Inhibition (Mean ± S.E)) [%]	Alpha amylase inhibitory activity (in words) ([2]; 10 mg per ml)	Maltose released ([2]; 10 mg per ml) [mg/mL]	Differential count (%) Eosinophils [3] [%]	Differential count (%) Lymphocytes [3] [%]	Differential count (%) Monocytes [3] [%]	Total count [3]	Yeast α Glucosidase Inhibition (Mean ± S.E) ([1]; single concentration screen) [%]	% Inhibition [2, 4] [%]
Cc1sc2nc3c(c(N)c2c1C)CCCC3 [BN-2, 2,3-dimethyl-5,6,7,8-tetrahydrothieno[2,3-b]quinolin-4-amine]	strong significant inhibitory activity	39.7		15.3 ± 2.69	20.1 ± 1.37	25.9 ± 0.44	33.4 ± 0.76	39.2 ± 0.87	43.9 ± 1.92	53 ± 1.13	56.54 ± 0.28	strong inhibitory activity; also recorded: mild inhibition	2.095						
Nc1c2c(nc3sc4c(c13)CCC4)CCCCC2 [BN-16, 1,2,3,6,7,8,9,10-Octahydrocyclohepta[b]cyclopenta[4,5]thieno[3,2-e]pyridine-11-amine]		31.5										mild inhibition	1.492	12	90	15	8		
Nc1c2c(nc3sc4c(c13)CCCC4)CCCCC2 [BN-8, 2,3,4,7,8,9,10,11-Octahydro-1H-benzo[4,5]thieno[2,3-b]cyclohepta [e]pyridin-12-amine]												strong inhibitory activity	0.913	20	70	10	14		
Cc1sc2nc3c(c(N)c2c1C)CCC3 [BN-1, 2,3-dimethyl-6,7-dihydro-5H-cyclopenta[b]thieno[3,2-e]pyridin-4-amine]		-3.12											2.20	12	65	20	12		
Nc1c2c(nc3sc4c(c13)CCC4)CCCCCC2 [BN-17, 2,3,6,7,8,9,10,11-Octahydro-1H-cycloocta [b]cyclopenta[4,5]thieno[3,2-e]pyridin-12-amine]												strong inhibitory activity	1.028	25	75	9	9	9.40 ± 4.49	53.92
Cc1sc2nc3c(c(N)c2c1C)CCCCC3 [BN-4, 2,3-dimethyl-6,7,8,9-tetrahydro-5H-cyclohepta[b]thieno[3,2-e]pyridin-4-amine]		-2.01											3.496		80	20	9		

Second part, led by results:

Yeast α-glucosidase enzyme inhibitory activity (in words) [1]	inhibition at 10000 µg/mL (stock) [2, 4] [%]	Maltose release ([2]; end of the reaction, vs control maltose release)	SMILES	inhibition at 39.063 µg/mL ([1]; yeast α-glucosidase, 0.039063 mg/ml, read-out: % Inhibition (Mean ± S.E)) [%]	inhibition at 78.125 µg/mL ([1]; yeast α-glucosidase, 0.078125 mg/ml, read-out: % Inhibition (Mean ± S.E)) [%]	inhibition at 156.25 µg/mL ([1]; yeast α-glucosidase, 0.15625 mg/ml, read-out: % Inhibition (Mean ± S.E)) [%]	inhibition at 312.5 µg/mL ([1]; yeast α-glucosidase, 0.3125 mg/ml, read-out: % Inhibition (Mean ± S.E)) [%]	inhibition at 625 µg/mL ([1]; yeast α-glucosidase, 0.625 mg/ml, read-out: % Inhibition (Mean ± S.E)) [%]	inhibition at 1250 µg/mL ([1]; yeast α-glucosidase, 1.25 mg/ml, read-out: % Inhibition (Mean ± S.E)) [%]	inhibition at 2500 µg/mL ([1]; yeast α-glucosidase, 2.5 mg/ml, read-out: % Inhibition (Mean ± S.E)) [%]	inhibition at 5000 µg/mL ([1]; yeast α-glucosidase, 5 mg/ml, read-out: % Inhibition (Mean ± S.E)) [%]	Alpha amylase inhibitory activity (in words) ([2]; 10 mg per ml)	Maltose released ([2]; 10 mg per ml) [mg/mL]	Differential count (%) Eosinophils [3] [%]	Differential count (%) Lymphocytes [3] [%]	Differential count (%) Monocytes [3] [%]	Total count [3]	Yeast α Glucosidase Inhibition (Mean ± S.E) ([1]; single concentration screen) [%]	% Inhibition [2, 4] [%]
moderate inhibitory activity	4.85		Nc1c2c(nc3sc4c(c13)CCCC4)CCC2 [BN-5, 2,3,6,7,8,9-Hexahydro-1H-benzo[4,5]thieno[2,3-b]cyclopenta[e]pyridin-10-amine]										3.226						
moderate inhibitory activity	46.7		CC1CCc2c(nc3sc4c(c3c2N)CCC4)C1 (stereo not drawn) [BN-15, 7-Methyl-2,3,6,7,8,9-hexahydro-1H-cyclopenta[4,5]thieno[2,3-b]quinolin-10-amine]									strong inhibitory activity	1.179	10	63.5	16.5	13		
moderate inhibitory activity	-16.2	more than control	Nc1c2c(nc3sc4c(c13)CCCCC4)CCC2 [BN-18, 1,2,3,6,7,8,9,10-Octahydrocyclohepta[4,5] thieno[2,3-b]cyclopenta [e]pyridin-11-amine]										3.972	20	70	15	18		
	-0.765		CC1CCc2c(nc3sc4c(c3c2N)CCCC4)C1 (stereo not drawn) [BN-7, 8-Methyl-1,2,3,4,7,8,9,10-octahydrobenzo[4,5]thieno[2,3-b]quinolin-11-amine]										2.163	20	70	10	7		
